Like-named read-outs stand apart in the source and are kept apart here.
Columns and labels:
EMT-6 tumors [1] = test: Radiosensitizing effect on experimental tumors in mice (cure percentages and TCD50, Experiment 3); assay type: in vivo, BALB/c-strain female mice; conditions: for TCD50: 100 mg/kg intraperitoneally after 32 MeV electron beam irradiation, control 2400; for Cure number/Number treated (%) / Cure number/Number treated: 100 mg/kg intraperitoneally after irradiation; for Cure number/Number treated (%): cure percentage; for Cure number/Number treated: observation longer than 90 days; for TCD50 (ratio): ratio to control (1.0)
Procedure: EMT-6 tumor cells ([…]) were inoculated intradermally into the right thighs of BALB/c-strain female mice (8 weeks old). When the tumor sizes reached 5.5 to 8.0 mm after inoculation of the tumor cells, irradiation was locally carried out with 1,000 rad to 2,700 rad of 32 MeV electron beam under no anesthesia, and thereafter 3'-dAdo and N^6-butyryl-3'-dAdo, each dissolved in physiological saline solution, were administered intraperitoneally in a dose of 100 mg/kg. After the treatments, observation was continued for longer than 90 days, and the cure percentages were determined for comparison with the control group. [formula] [formula]

Acute toxicity test = test: Acute toxicity test; design: species or system ICR mice; conditions: mouse, in vivo, ip
Procedure: Various quantities of N -butyryl-3'-dAdo were administered intraperitoneally to ICR mice (male, 8-weeks old, 10 mice for each group) in doses of 250 mg to 1,000 mg/kg, and the mice were subjected to observation for a week.

EMT-6 tumors [2] = test: Enhancement of the effect of anti-tumor agents on experimental tumors in mice (Experiment 5); assay type: in vivo, BALB/c-strain mice; conditions: 14th day after treatment
Procedure: EMT-6 tumor cells (1 x 10^6) were inoculated intradermally into the right thighs of BALB/c-strain mice (8 weeks old). On the 12th day after inoculation of the tumor cells and thereafter, each chemical in a physiological saline solution was administered intrapenitoneally to each mouse four times a week in the indicated doses for respective agents. The pharmaceutical agents of the present invention were administered one hour after administration of the anti-tumor agents. After commencement of the treatment with pharmaceutical agents, the tumor sizes were measured every other day and compared with those of the control group.

RIF1 tumors = test: Radiosensitizing effect on experimental tumors in mice (tumor size after irradiation, Experiment 4); assay type: in vivo, C3H/Heston-strain female mice; conditions: for Mean tumor diameter (mm): n=7; for Sensitizing effect: relative to irradiation alone
Procedure: RIF1 tumor cells ([…]) were inoculated intradermally into the right thighs of C3H/Heston-strain female mice (8 weeks old). When the tumor sizes reached 6.0 to 10.0 mm after inoculation of the tumor cells, irradiation was carried out with 2,500 rad/min. of an electron beam, and thereafter N^6-acetyl-3'-dAdo, N^6-butyryl-3'-dAdo, N^6-hexanoyl-3'-dAdo, and N - octanoyl-3'-dAdo, each dissolved in physiological saline solution, were administered intraperitoneally in a dose of 100 mg/kg. After the treatments, the tumor sizes in terms of diameters in three-axial directions were measured on the 10th day and the 20th day (9th day and the 21st day only in case of N^6-butyryl-3'-dAdo).

[3] = system: Chinese hamster-HA-1 cells; test: Radiosensitizing effect on the tumor cells in culture (PLDR inhibition, colony forming ability after X-rays); assay type: cell-based
Procedure: Cells under stationary phase, prepared by planting 2 x 10^5 cells/well of Chinese hamster-HA-1 cells in a multi-well dish and exchanging cultural medium every day starting on the third day and thereafter were irradiated with 1,000 R of X-rays. Immediately after radiation, N6-butyryl-3'-dAdo in Hanks' balanced salt solution were administered. Then, after elapse of various times, the cells were taken off with trypsin, and a suitable number of cells were transferred into petri dishes for testing colony forming ability and plating efficiencies. The percentages of survival were calculated with corrections by the plating efficiencies with the pharmaceutical agents alone.

EMT-6 tumors [4] = test: Radiosensitizing effect on experimental tumor in mice (tumor size after local irradiation, Experiment 2); assay type: in vivo, BALB/c-strain female mice; conditions: for Mean tumor diameter (mm): 1,500 rad 32 MeV electron beam, n = 9; for Sensitizing effect: diameter ratio with agent / diameter ratio with irradiation alone
Procedure: EMT-6 tumor cells (2 x 10^5) were inoculated intradermally into the right thighs of BALB/c-strain female mice (8 weeks old, 6 or more mice for each group). When the tumor size reached 5.5 to 7.5 mm in diameter after inoculation of the tumor cells, local irradiation with a 32 MeV electron beam was carried out at 1,500 rad under no anesthesia and thereafter N^6-butyryl-3'-dAdo dissolved in physiological saline solution, was administered intraperitoneally to each mouse in 100 mg/kg. On the 9th day and 20th day after these treatments, t tumor sizes were measured in tri-dimensional diameters, and compared with the control group with respect to the following items: [formula] [formula] The results are shown in Table 2, in which "cure" means that the tumors completely vanished during the observation period.

[5] = 10th day after treatment, 2500 rad, then 100 mg/kg intraperitoneally
[6] = 20th day after treatment, 2500 rad, then 100 mg/kg intraperitoneally
[7] = 20th day after treatment, but 21st day for this compound
[8] = column head 10th day after treatment, but 9th day for this compound
[9] = FT-207 100mg/kg x 7 plus enhancer 50mg/kg x 7

SMILES: Nc1ncnc2c1ncn2[C@@H]1O[C@H](CO)C[C@H]1O [3'-dAdo, 3'-deoxyadenosine, reference compound]
- TCD50 (EMT-6 tumors [1]): 1600
- Cure number/Number treated (%) (EMT-6 tumors [1]; 1,000 rad): 17%
- Cure number/Number treated (EMT-6 tumors [1]; 1,000 rad): 3/18
- Cure number/Number treated (%) (EMT-6 tumors [1]; 1,500 rad): 48%
- Cure number/Number treated (EMT-6 tumors [1]; 1,500 rad): 14/29
- Cure number/Number treated (%) (EMT-6 tumors [1]; 2,100 rad): 79%
- Cure number/Number treated (EMT-6 tumors [1]; 2,100 rad): 11/14
- Cure number/Number treated (%) (EMT-6 tumors [1]; 2,700 rad): 67%
- Cure number/Number treated (EMT-6 tumors [1]; 2,700 rad): 10/15
- TCD50 (ratio) (EMT-6 tumors [1]): 0.67
- LD50 at 168 h (Acute toxicity test; intraperitoneally, ICR mice male, observation for a week, read-out: LD50): 280 mg/kg

SMILES: O=c1[nH]c(=O)n(C2CCCO2)cc1F (stereo not drawn) [FT-207, 1-(2-tetrahydrofuryl)-5-fluorouracil, reference compound]
- Diameter ratio, value in brackets (relative to control = 1.00) (EMT-6 tumors [2]; anti-tumor agent alone, 100mg/kg x 7): 0.76
- Mean tumor diameter (mm) (EMT-6 tumors [2]; anti-tumor agent alone, 100mg/kg x 7 intraperitoneally, n = 4): 7.80±1.64 mm

SMILES: CC(=O)Nc1ncnc2c1ncn2[C@@H]1O[C@H](CO)C[C@H]1O [N^6-acetyl-3'-dAdo]
- Diameter ratio (RIF1 tumors; [5]): 1.12±0.06
- Mean tumor diameter (mm) (RIF1 tumors; [5]): 7.86±0.55 mm
- Sensitizing effect (RIF1 tumors; 10th day after treatment): 0.95
- Diameter ratio (RIF1 tumors; [6]): 1.49±0.06
- Mean tumor diameter (mm) (RIF1 tumors; [6]): 10.39±0.51 mm
- Sensitizing effect (RIF1 tumors; 20th day after treatment): 0.84

SMILES: CCCC(=O)Nc1ncnc2c1ncn2[C@@H]1O[C@H](CO)C[C@H]1O [N^6-butyryl-3'-dAdo]
- Plating efficiency (%) After 1 hour ([3]; 40 µg/ml given immediately after 1,000 R of X-rays, stationary phase cells, 1 hour after irradiation): 1.4%
- Plating efficiency (%) After 4 hours ([3]; 40 µg/ml given immediately after 1,000 R of X-rays, stationary phase cells, 4 hours after irradiation): 2.2%
- Plating efficiency (%) After 7 hours ([3]; 40 µg/ml given immediately after 1,000 R of X-rays, stationary phase cells, 7 hours after irradiation): 2.4%
- inhibition of repair (PLDR) after irradiation with X-rays ([3]; result in words, from Table 1): inhibit repair (PLDR)
- toxicity, as examined by plating efficiencies ([3]; result in words, agent alone): Substantially no toxicity was observed
- Mean tumor diameter (mm) (EMT-6 tumors [4]; 9 days after treatment, then 100 mg/kg intraperitoneally): 5.36±1.13 mm
- Diameter ratio (EMT-6 tumors [4]; 9 days after treatment, 1,500 rad, then 100 mg/kg intraperitoneally): 0.83±0.18
- Sensitizing effect (EMT-6 tumors [4]; 9 days after treatment): 0.86
- Mean tumor diameter (mm) (EMT-6 tumors [4]; 20 days after treatment, then 100 mg/kg intraperitoneally): 0.0±0.0 mm
- Cured cases (EMT-6 tumors [4]; 20 days after treatment, cure = tumors completely vanished during the observation period, 1,500 rad + 100 mg/kg i.p.): 9/9
- Sensitizing effect (EMT-6 tumors [4]; 20 days after treatment): 0.00
- TCD50 (EMT-6 tumors [1]): 1080
- Cure number/Number treated (%) (EMT-6 tumors [1]; 1,000 rad): 40%
- Cure number/Number treated (EMT-6 tumors [1]; 1,000 rad): 6/15
- Cure number/Number treated (%) (EMT-6 tumors [1]; 1,500 rad): 65%
- Cure number/Number treated (EMT-6 tumors [1]; 1,500 rad): 13/20
- Cure number/Number treated (%) (EMT-6 tumors [1]; 2,100 rad): 93%
- Cure number/Number treated (EMT-6 tumors [1]; 2,100 rad): 14/15
- Cure number/Number treated (%) (EMT-6 tumors [1]; 2,700 rad): 100%
- Cure number/Number treated (EMT-6 tumors [1]; 2,700 rad): 16/16
- TCD50 (ratio) (EMT-6 tumors [1]): 0.45
- Diameter ratio (RIF1 tumors; [7]): 1.35±0.08
- Mean tumor diameter (mm) (RIF1 tumors; 20th day after treatment, but 21st day for this compound, 2500 rad, then 100 mg/kg intraperitoneally): 10.28±0.36 mm
- Sensitizing effect (RIF1 tumors; [7]): 0.76
- Diameter ratio (RIF1 tumors; [8]): 0.90±0.08
- Mean tumor diameter (mm) (RIF1 tumors; column head 10th day after treatment, but 9th day for this compound, 2500 rad, then 100 mg/kg intraperitoneally): 6.71±0.63 mm
- Sensitizing effect (RIF1 tumors; [8]): 0.76
- Diameter ratio (mm) (EMT-6 tumors [2]; [9]): 0.97±0.23
- Diameter ratio, value in brackets (relative to control = 1.00) (EMT-6 tumors [2]; [9]): 0.62
- Mean tumor diameter (mm) (EMT-6 tumors [2]; FT-207 100mg/kg x 7 plus enhancer 50mg/kg x 7 given one hour later, n = 5): 6.72±1.69 mm
- Diameter ratio (mm) (EMT-6 tumors [2]; enhancer alone, 50mg/kg x 7): 1.36±0.32
- Diameter ratio, value in brackets (relative to control = 1.00) (EMT-6 tumors [2]; enhancer alone, 50mg/kg x 7): 0.87
- Mean tumor diameter (mm) (EMT-6 tumors [2]; enhancer alone, 50mg/kg x 7 intraperitoneally, n = 5): 9.92±2.45 mm
- Enhancing effect (EMT-6 tumors [2]; ratio in combination / (ratio anti-tumor agent alone x ratio enhancer alone), FT-207 100mg/kg x 7 plus enhancer 50mg/kg x 7): 0.94
- LD50 at 168 h (Acute toxicity test): 710 mg/kg

SMILES: CCCCCC(=O)Nc1ncnc2c1ncn2[C@@H]1O[C@H](CO)C[C@H]1O [N^6-hexanoyl-3'-dAdo]
- Diameter ratio (RIF1 tumors; [5]): 1.11±0.05
- Mean tumor diameter (mm) (RIF1 tumors; [5]): 7.90±0.47 mm
- Sensitizing effect (RIF1 tumors; 10th day after treatment): 0.94
- Diameter ratio (RIF1 tumors; [6]): 1.46±0.05
- Mean tumor diameter (mm) (RIF1 tumors; [6]): 10.37±0.42 mm
- Sensitizing effect (RIF1 tumors; 20th day after treatment): 0.82

SMILES: CCCCCCCC(=O)Nc1ncnc2c1ncn2[C@@H]1O[C@H](CO)C[C@H]1O [N^6-octanoyl-3'-dAdo]
- Diameter ratio (RIF1 tumors; [5]): 1.04±0.04
- Mean tumor diameter (mm) (RIF1 tumors; [5]): 7.50±0.37 mm
- Sensitizing effect (RIF1 tumors; 10th day after treatment): 0.88
- Diameter ratio (RIF1 tumors; [6]): 1.33±0.02
- Mean tumor diameter (mm) (RIF1 tumors; [6]): 9.61±0.46 mm
- Sensitizing effect (RIF1 tumors; 20th day after treatment): 0.75

Reference: patent publication EP0068268A1, “Enhancer of anti-tumour effect” (Yamasa Shoyu Kabushiki Kaisha, priority 1981, dated 1983)
